Source: publication PMC9863716, “The Sequence Characteristics and Binding Properties of the Odorant-Binding Protein 2 of Euplatypus parallelus to Semiochemicals” (International Journal of Molecular Sciences, 2023)

Legend:
rubber bark beetles = tested on: rubber bark beetles; design: method as in ref 16, 17 = [16]; 16. Shore T. McLean J. Attraction of Platypus wilsoni Swaine (Coleoptera: Platipodidae) to traps baited with sulcatol, ethanol and alpha-pinene Can. For. Serv. Res. Notes 1983 3 24 25 || [17]; 17. Chen Q. Liang X. Wu C. Chen Q. Zhang Z. Trapping effects of 12 aggregation pheromones on rubber bark beetles Chin. J. Trop. Crops 2019 40 2432 2439; settings: trapping experiments; cited from earlier work
EparOBP2 [1] = test: Fluorescence competitive binding assay (displacement of 1-NPN); design: species or system Euplatypus parallelus; settings: 2 μM protein, 50 mM Tris-HCl pH 7.4; for Ki: Ki = IC50/(1 + [1-NPN]/K1-NPN); for IC50: ligand concentration displacing 50% of 1-NPN
Experimental: (§1) Nine semiochemicals related to the life activities of E. parallelus were used as candidate ligands. The binding capacities of EpraOBP2 were evaluated using an F-7000 fluorescence spectrometer (Hitachi, Tokyo, Japan). The fluorescent reporter N-phenyl-1-naphthylamine (1-NPN) was dissolved in chromatographic methanol at a concentration of 1 mM. The purified EparOBP2 was dissolved in 50 mM Tris-HCl (pH 7.4) at a final concentration of 2 μM. The fluorescence spectra were scanned between 360 and 650 nm. […] Prism 8 (GraphPad Software, San Diego, CA, USA) was used to calculate the dissociation constant of 1-NPN (K1-NPN).
To calculate the binding ability of EparOBP2 with semiochemicals, different odor compounds were used to replace the 1-NPN from the EparOBP2/1-NPN complex. The odor ligands were dissolved in chromatographic methanol at a concentration of 1 mM and added as aliquots to the protein solution. The spectral results were obtained, and the dissociation constants of the competitors were calculated with the formula Ki = IC50/(1 + [1-NPN]/K1-NPN), where 1-NPN represents the free concentration of 1-NPN, while IC50 represents the ligand concentration displacing 50% of the fluorescent reporter.

E. parallelus = tested on: E. parallelus; design: method as in ref 7, 15 = [7]; 7. Zhou X. Guo J. Yin T. Gan W. Bai C. Xu F. Yang S. Research progress on rubber bark beetles and trapping control technology in China Chin. J. Trop. Crops 2021 42 3049 3054 || [15]; 15. Xu F. Research of Volatile Compounds of Rubber Tree and Its Behavioral Activities on Two Species of Bark Beetles Hainan University Haikou, China 2019 20 24; settings: cited from earlier work
EparOBP2 [2] = test: Titration of EparOBP2 with fluorescent probe 1-NPN (saturation and Scatchard plot); type: binding, Euplatypus parallelus; settings: 2 μM protein titrated with 2 to 20 μM 1-NPN, pH 7.4; read-out: K1-NPN (dissociation constant of 1-NPN)
Experimental: as §1

SMILES | attraction effects on rubber bark beetles (rubber bark beetles) | Ki (EparOBP2 [1]) [µM] | IC50 (EparOBP2 [1]) [µM] | attraction effect on E. parallelus (E. parallelus) | Kd (EparOBP2 [2]) [µM]
CC1=C[C@H](O)[C@H]2C[C@@H]1C2(C)C [S-(-)-cis-Verbenol] | attraction effects | 19.3 | 23.2 | – | –
C=C1C2CCC(C2)C1(C)C (stereo not shown) [Camphene] | attraction effects | 27.4 | 32.9 | – | –
CCCCCCCCCCCCCC [Tetradecane] | – | 26 | 31.2 | attraction effect | –
c1ccc(Nc2cccc3ccccc23)cc1 [1-NPN, N-phenyl-1-naphthylamine] | – | – | – | – | 4.98
C=C1[C@H]2CC[C@@H]3[C@H]2C(C)(C)CCC[C@]13C [(+)-Longifolene] | – | 41.3 | 49.6 | attraction effect | –
CC(C)(O)c1ccccc1 [2-Phenyl-2-propanol] | – | 23.3 | 27.9 | attraction effect | –
CC1=CCC2CC1C2(C)C (stereo not drawn) [α-Pinene] | attraction effects | 15.9 | 19.1 | – | –
C=CC(C)(C)O [2-Methyl-3-buten-2-ol] | attraction effects | 31.6 | 37.9 | – | –
C=C(C)[C@@H]1CC=C(C)CC1 [(S)-(-)-Limonene] | attraction effects | 33.7 | 40.4 | – | –
C=CC(=C)CCC=C(C)C [Myrcene] | attraction effects | 7.49 | 8.99 | – | –
